Assay results from US20260091147A1, “METHOD FOR DETECTING INNATE IMMUNE ACTION IN VIVO USING GPR84-PET” (The Board of Trustees of the Leland Standford Junior …, priority 2023, published 2026).
One block for each compound: values may come before it.

Assays:
[1] = target: T1, synaptic vesicle glycoprotein 2A receptor (Mus musculus, UniProt Q9JIS5); conditions: cited from earlier work
T1 construct: host or cells: healthy mouse brain in vivo

[2] = target: T2, postsynaptic dopamine D2 receptors (Rattus norvegicus, UniProt P61169); conditions: healthy rodents; cited from earlier work
T2 construct: host or cells: healthy rodent brain in vivo
T2 sequence (P61169 whole entry): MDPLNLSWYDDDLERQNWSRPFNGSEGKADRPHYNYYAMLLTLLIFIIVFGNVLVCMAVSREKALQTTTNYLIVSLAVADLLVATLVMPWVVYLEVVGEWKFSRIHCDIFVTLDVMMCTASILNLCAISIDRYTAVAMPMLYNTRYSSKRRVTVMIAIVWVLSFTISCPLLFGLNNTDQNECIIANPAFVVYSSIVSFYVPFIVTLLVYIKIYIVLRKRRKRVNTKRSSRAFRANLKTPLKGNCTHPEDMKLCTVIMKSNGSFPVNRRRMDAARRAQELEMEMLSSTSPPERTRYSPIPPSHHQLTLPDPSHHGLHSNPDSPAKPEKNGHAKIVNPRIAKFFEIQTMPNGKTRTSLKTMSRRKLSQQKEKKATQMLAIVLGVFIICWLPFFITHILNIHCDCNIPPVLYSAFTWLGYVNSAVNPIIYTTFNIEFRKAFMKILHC

[3] = target: T3, CSF1R (Mus musculus, UniProt P09581); conditions: LPS 10 mg/kg; cited from earlier work
T3 construct: host or cells: mouse brain in vivo, LPS 10 mg/kg
T3 sequence (P09581 20-977): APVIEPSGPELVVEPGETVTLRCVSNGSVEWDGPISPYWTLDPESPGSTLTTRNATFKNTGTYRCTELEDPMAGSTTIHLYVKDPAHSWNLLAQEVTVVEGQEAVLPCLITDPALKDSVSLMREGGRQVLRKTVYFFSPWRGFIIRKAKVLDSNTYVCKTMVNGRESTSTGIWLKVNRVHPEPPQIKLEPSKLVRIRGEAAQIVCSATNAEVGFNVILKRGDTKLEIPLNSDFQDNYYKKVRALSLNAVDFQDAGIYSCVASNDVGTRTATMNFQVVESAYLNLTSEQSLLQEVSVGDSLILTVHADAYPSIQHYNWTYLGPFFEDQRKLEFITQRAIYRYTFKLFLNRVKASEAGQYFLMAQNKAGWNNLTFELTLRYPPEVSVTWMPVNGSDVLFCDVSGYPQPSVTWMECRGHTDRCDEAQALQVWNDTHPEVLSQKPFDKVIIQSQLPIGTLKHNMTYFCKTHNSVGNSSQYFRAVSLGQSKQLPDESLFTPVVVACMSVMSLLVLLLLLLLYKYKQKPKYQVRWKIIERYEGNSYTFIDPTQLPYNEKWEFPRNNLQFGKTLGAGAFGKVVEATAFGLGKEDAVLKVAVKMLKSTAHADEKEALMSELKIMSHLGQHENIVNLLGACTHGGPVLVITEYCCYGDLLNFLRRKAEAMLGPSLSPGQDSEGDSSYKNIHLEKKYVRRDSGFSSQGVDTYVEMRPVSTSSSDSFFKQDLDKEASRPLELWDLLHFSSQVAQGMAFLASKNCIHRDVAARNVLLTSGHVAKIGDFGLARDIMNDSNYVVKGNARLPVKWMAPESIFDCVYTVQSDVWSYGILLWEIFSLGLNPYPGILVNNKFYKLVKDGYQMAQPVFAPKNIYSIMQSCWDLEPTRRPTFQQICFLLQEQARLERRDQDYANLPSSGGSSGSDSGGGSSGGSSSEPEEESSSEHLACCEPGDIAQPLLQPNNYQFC

[4] = target: human GPR84-Gαi2 fusion protein (Homo sapiens, UniProt Q9NQS5); test: [3H]G9543 competition binding assay, membranes from Flp-In TREx 293 cells; conditions: competition with [3H]G9543; read-out: Kd (affinity for GPR84)
human GPR84-Gαi2 fusion protein, sequence (Q9NQS5 whole entry, the tested form may be a part): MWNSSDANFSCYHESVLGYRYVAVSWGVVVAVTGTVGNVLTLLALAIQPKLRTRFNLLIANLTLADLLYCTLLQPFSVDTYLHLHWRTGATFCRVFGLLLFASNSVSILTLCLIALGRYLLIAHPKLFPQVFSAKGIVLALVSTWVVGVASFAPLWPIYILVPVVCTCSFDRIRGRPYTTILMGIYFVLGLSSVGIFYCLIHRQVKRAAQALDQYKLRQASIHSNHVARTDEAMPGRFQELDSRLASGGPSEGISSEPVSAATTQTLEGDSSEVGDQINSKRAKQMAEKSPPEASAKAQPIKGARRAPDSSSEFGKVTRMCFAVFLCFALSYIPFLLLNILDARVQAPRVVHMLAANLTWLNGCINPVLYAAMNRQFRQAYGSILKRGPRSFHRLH
Method: To determine KD of GLPG38, a competitive binding assay was performed using a membrane preparation from cells expressing GPR84-Gi in addition to [^3H]G9543, a known GPR84 antagonist. [^11C]GLPG38 was then radiosynthesized via [^11C]methylation of desmethyl precursor using [^11C]methyl iodide. […] For animal studies, sepsis was induced in female C57BL/6J mice via intraperitoneal injection of lipopolysaccharide (LPS, 10 mg/kg); vehicle-treated mice were injected with saline alone. Dynamic 60 min PET/CT imaging was performed 24 hr following LPS-administration using [^11C]GLPG38. Subsequently, mice were perfused with PBS to remove blood, and radioactive signal was assessed in CNS and peripheral tissues via gamma counting. Ex vivo autoradiography of sagittal mouse brain sections was conducted to obtain high resolution images of [^11C]GLPG38 binding. To investigate alterations in GPR84 mRNA expression, quantitative polymerase-chain reaction was performed using mouse brain tissue and human monocyte-derived macrophage cells stimulated with LPS 24 hr prior to RNA extraction.

[5] = target: T4, purinergic receptor subtype 7 (P2×7) (Mus musculus, UniProt Q9Z1M0); conditions: LPS 5 mg/kg; cited from earlier work
T4 construct: host or cells: mouse brain in vivo, LPS 5 mg/kg
T4 sequence (Q9Z1M0 1-595): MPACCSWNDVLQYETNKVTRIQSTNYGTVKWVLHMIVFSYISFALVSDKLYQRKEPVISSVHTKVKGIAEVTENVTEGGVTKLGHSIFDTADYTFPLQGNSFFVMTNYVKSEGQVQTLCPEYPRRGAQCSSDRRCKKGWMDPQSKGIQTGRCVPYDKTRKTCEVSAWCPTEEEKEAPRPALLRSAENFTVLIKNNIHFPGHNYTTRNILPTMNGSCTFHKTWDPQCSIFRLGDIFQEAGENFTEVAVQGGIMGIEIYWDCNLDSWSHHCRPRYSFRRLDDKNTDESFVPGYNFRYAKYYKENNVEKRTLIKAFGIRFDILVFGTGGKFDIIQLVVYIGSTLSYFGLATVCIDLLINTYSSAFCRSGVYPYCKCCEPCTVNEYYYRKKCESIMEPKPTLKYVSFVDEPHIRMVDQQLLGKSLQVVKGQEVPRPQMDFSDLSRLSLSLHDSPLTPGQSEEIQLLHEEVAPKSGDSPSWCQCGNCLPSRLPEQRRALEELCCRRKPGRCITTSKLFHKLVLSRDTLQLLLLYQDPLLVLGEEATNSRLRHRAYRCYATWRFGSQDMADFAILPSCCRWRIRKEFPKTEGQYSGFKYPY

[6] = Dynamic 60 min PET/CT of healthy mice, whole-brain time activity curve; assay type: in vivo, mouse; conditions: healthy mice
From the text: A transmission scan was acquired to correct for attenuation during image reconstruction. Following PET imaging, mice were transferred to a SOFIE GNEXT PET/CT for CT acquisition. PET/CT data were co-registered and analyzed using Inveon Research Workplace software to generate images and quantify radiotracer uptake in regions of interest (ROIs). A 3D ROI was manually defined for the whole brain using CT data as anatomical reference, then applied to the full dynamic data set to generate a time activity curve (TAC).
(§1) The count densities were averaged for all volumes of interest at each time point to obtain a time-activity curve (TAC). The TACs were normalized to injected dose, as measured by a CRC-15 PET dose calibrator (Capintec Inc.), and expressed as % injected dose per gram (% ID/g), assuming 1 g/mL. CT was performed in GNEXT depth of interaction (DOI) dual-layer detector system. Scintica VivoQuant software was used to visualize radiotracer uptake and define the 3D volumes of interest. 3D maximum intensity projection (MIP) PET/CT images were created using IRW software.
On days 15-16 after EAE induction, mice were catheterized and placed on the 4-mouse scanning bed of the Sofie GNEXT PET/CT scanner.

[7] = target: T5, GPR84 (Mus musculus, UniProt Q8CIM5); test: Dynamic PET/CT of brain in LPS-induced systemic inflammation vs saline, with or without GLPG1205 block; assay type: in vivo; conditions: LPS 5 mg/kg
T5 construct: tissue Jackson Laboratories; host or cells: female C57BL/6J mice (LPS, saline, EAE or naive): brain, spinal cord and peripheral organs
T5 sequence (Q8CIM5 whole entry): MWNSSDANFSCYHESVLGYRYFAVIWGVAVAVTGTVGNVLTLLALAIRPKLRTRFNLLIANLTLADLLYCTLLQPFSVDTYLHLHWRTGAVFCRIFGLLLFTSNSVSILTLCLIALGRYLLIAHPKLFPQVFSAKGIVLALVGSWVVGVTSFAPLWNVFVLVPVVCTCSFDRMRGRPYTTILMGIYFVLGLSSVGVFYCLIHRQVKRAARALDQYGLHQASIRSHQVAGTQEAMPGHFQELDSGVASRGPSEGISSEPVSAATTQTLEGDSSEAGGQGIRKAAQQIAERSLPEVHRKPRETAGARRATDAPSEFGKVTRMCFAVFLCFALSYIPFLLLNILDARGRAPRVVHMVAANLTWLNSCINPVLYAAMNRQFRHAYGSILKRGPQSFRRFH
Method: (§2) To determine KD of GLPG38, a competitive binding assay was performed using a membrane preparation from cells expressing GPR84-Gi in addition to [^3H]G9543, a known GPR84 antagonist. [^11C]GLPG38 was then radiosynthesized via [^11C]methylation of desmethyl precursor using [^11C]methyl iodide. […] Dynamic 60 min PET/CT imaging was performed 24 hr following LPS-administration using [^11C]GLPG38. Subsequently, mice were perfused with PBS to remove blood, and radioactive signal was assessed in CNS and peripheral tissues via gamma counting. Ex vivo autoradiography of sagittal mouse brain sections was conducted to obtain high resolution images of [^11C]GLPG38 binding. To investigate alterations in GPR84 mRNA expression, quantitative polymerase-chain reaction was performed using mouse brain tissue and human monocyte-derived macrophage cells stimulated with LPS 24 hr prior to RNA extraction.
as §1
A range of doses (0.65, 0.75, and 0.90 mg/kg) of GLPG1205 were used to investigate whether the blocking was dose-dependent. […] GLPG1205 was injected intra-venously 10 min prior to radiotracer injection (n=4).

[8] = target: T5, GPR84; test: Ex vivo biodistribution (gamma counting) of GPR84 tracer in LPS- vs saline-treated mice; conditions: 20 min post injection
Method: FIGS. 11A-11B show ex vivo biodistribution and autoradiography. […] At 20 min postinjection, animals were perfused with saline and tissues were collected, weighed, and gamma-counted. […] Statistical analysis was performed using “Unpaired t test with Welch correction”, *=P<0.05. […] Cb=cerebellum, Ctx=cortex, Str=striatum, H=hippocampus, Mb=midbrain, Ob=olfactory bulb, and BS=brain stem.
as §2

[9] = Method: In vivo stability assay. […] Mice were perfused with PBS buffer (20 mL) under deep anesthesia (5 min, 20 min). The whole brain and liver lobe were removed from mouse place in two separate […] microcentrifuge tubes containing 500 μL acetonitrile, homogenized sample and placed on ice. The well-homogenized samples were transferred to two 1.5 mL microcentrifuge tubes, centrifuged at 9,400 g for 4 min at room temperature. Supernatants were transferred into gamma counting tubes; the pellets were transferred into separate tubes. All supernatants and pellets were counted using gamma counter to measure extraction efficiency. Each of the supernatant (150-200 μL) was transferred into HPLC vials with the inserts and injected into HPLC for radio-metabolic analysis.
At 5 and 20 min post-tracer injection, the analysis of the whole brain and liver was performed using analytical HPLC to assess the presence of potential radiometabolites.

[10] = target: T5, GPR84; test: Ex vivo autoradiography of brain sections from LPS-treated mice; assay type: in vivo; conditions: GLPG1205 5 mg/kg ([11C]GLPG38) or 1 mg/kg (11C-MGX-10S)
Method: To determine KD of GLPG38, a competitive binding assay was performed using a membrane preparation from cells expressing GPR84-Gi in addition to [^3H]G9543, a known GPR84 antagonist. [^11C]GLPG38 was then radiosynthesized via [^11C]methylation of desmethyl precursor using [^11C]methyl iodide. Binding specificity of [^11C]GLPG38 was assessed using human GPR84-stably-expressing human embryonic kidney cells (HEK-293) versus control HEK-293 cells. For animal studies, sepsis was induced in female C57BL/6J mice via intraperitoneal injection of lipopolysaccharide (LPS, 10 mg/kg); vehicle-treated mice were injected with saline alone. Dynamic 60 min PET/CT imaging was performed 24 hr following LPS-administration using [^11C]GLPG38. Subsequently, mice were perfused with PBS to remove blood, and radioactive signal was assessed in CNS and peripheral tissues via gamma counting. Ex vivo autoradiography of sagittal mouse brain sections was conducted to obtain high resolution images of [^11C]GLPG38 binding. To investigate alterations in GPR84 mRNA expression, quantitative polymerase-chain reaction was performed using mouse brain tissue and human monocyte-derived macrophage cells stimulated with LPS 24 hr prior to RNA extraction.
Ex vivo Audoradiography Confirms ^11C-MGX-10S Specificity.

T1 sequence (Q9JIS5 whole entry): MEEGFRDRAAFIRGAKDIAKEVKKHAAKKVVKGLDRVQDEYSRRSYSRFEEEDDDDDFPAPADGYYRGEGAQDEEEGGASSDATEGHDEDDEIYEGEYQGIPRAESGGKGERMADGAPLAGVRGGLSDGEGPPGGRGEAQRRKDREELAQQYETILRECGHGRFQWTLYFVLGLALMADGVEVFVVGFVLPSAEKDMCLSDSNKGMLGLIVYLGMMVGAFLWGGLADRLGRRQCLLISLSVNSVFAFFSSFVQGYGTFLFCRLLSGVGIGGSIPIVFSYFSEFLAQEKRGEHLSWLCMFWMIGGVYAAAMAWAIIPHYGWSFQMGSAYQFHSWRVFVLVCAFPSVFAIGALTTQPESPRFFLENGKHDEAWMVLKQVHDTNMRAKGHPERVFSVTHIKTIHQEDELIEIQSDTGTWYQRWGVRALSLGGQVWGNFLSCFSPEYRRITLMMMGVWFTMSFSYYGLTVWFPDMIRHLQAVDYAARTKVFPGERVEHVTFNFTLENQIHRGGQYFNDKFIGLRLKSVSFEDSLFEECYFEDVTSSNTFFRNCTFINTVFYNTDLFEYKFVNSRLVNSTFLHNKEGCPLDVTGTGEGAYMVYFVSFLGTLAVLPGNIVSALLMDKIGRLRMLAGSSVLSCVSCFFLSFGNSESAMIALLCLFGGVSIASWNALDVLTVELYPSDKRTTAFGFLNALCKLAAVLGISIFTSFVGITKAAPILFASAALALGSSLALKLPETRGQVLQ

Structure (SMILES): [11CH3]c1cnccc1CN1C[C@@H](c2cc(F)c(F)c(F)c2)CC1=O [^11C-UCBJ]
Brain 15 min/90 min ratio ([1]; healthy mouse brain): ~3
time of maximum brain uptake ([1]; healthy mouse): 15 min

Structure (SMILES): CCN1CCC[C@H]1CNC(=O)c1c(O)c(Cl)cc(Cl)c1O[11CH3] (racemic) [^11C-Raclopride]
Brain 5 min/60 min ratio [2]: ~2
time of maximum brain uptake [2]: 5 min

Structure (SMILES): CN1CCN(c2ccc(NC(=O)c3ccc(C#N)o3)c(N3CCCCC3)c2)CC1 [^11C-CPPC, [11C]5-Cyano-N-(4-(4-Methylpiperazin-1-YI)-2-(Piperidin-1-YI)Phenyl)Furan-2-Carboxamide]
higher binding in mouse brain, LPS vs control animal [3]: 55%

Kd [4]: 11.8 nM
Structure (SMILES): COc1cc2c(cc1C)-c1c(C)c(OC[C@@H]3COCCO3)cc(=O)n1CC2 [GLPG38]

Structure (SMILES): [11CH3]N1C(=O)CC[C@H]1C(=O)NCc1cccc(C(F)(F)F)c1Cl [^11C-GSK1482160]
fold higher binding in brain, LPS vs saline-treated mice [5]: 3.2 fold

Structure (SMILES): [11CH3]Oc1ccc2c(c1)CCn1c-2cc(OC[C@@H]2COCCO2)nc1=O [^11C-MGX-10S]
time of peak brain uptake [6]: ≤ 22.5 s
whole-brain uptake after washout, end of 60 min scan [6]: 1.89±0.35 % ID/g
peak whole-brain uptake ([6]; 60 min dynamic scan): 5.90±0.89 % ID/g
reduction of brain PET signal in LPS mice by GLPG1205 at end of scan ([7]; GLPG1205 0.65 mg/kg i.v. 10 min before tracer): 38.50%
increase in whole-brain radiotracer uptake, LPS vs saline, 30-60 min integration [7]: approximately 39.27%
higher brain accumulation in LPS vs saline-treated mice at end of scan ([7]; 60 min dynamic PET): 42.46%
adipose tissue uptake, saline-treated mice [8]: 0.63±0.15 % ID/g
kidney uptake, saline-treated mice [8]: 5.32±3.01 % ID/gram
liver uptake, saline-treated mice [8]: 4.51±0.15 % ID/gram
brain uptake, saline-treated mice ([8]; perfused): 0.45±0.06 % ID/g
adipose tissue uptake, LPS-treated mice ([8]; LPS 5 mg/kg): 1.16±0.50 % ID/g
kidney uptake, LPS-treated mice ([8]; LPS 5 mg/kg): 8.73±3.18 % ID/gram
liver uptake, LPS-treated mice ([8]; LPS 5 mg/kg): 7.08±1.27 % ID/gram
brain uptake, LPS-treated mice ([8]; LPS 5 mg/kg, perfused): 0.84±0.21 % ID/gram
radiometabolite M1 in brain at 20 min post injection ([9]; HPLC): 3%
radiometabolite M1 in liver at 20 min post injection ([9]; HPLC): 10%
intact radiotracer in liver at 20 min post injection ([9]; LPS-treated mice): 90%
intact radiotracer in liver, initial (5 min) ([9]; LPS-treated mice): 100%
intact radiotracer in brain at 5 min post injection ([9]; LPS-treated mice, n=3): 100%
intact radiotracer in brain at 20 min post injection ([9]; LPS-treated mice, n=3): 97%
tracer binding in LPS brain sections after pre-blocking with GLPG1205 [10]: dramatic reduction
